Experimental findings from patent publication US20250129033A1, “METAP2 INHIBITORS AND USES THEREOF” (Yissum Research Development Company of the Hebrew …, priority 2022, published 2025) are described below.

Each structure is given as a SMILES string. “Also recorded” adds a separate entry of the source.

One data set concerns HUVECs. Put plainly: Endothelial tube formation assay. The class given is cell-based, human. To be noted: 12 h. As to the method: To evaluate the angiogenic effect of AD-3281, an endothelial tube formation assay was performed. HUVECs were kept in serum-free Dulbecco's modified Eagle's medium media, collected, seeded in 0.1% gelatin coated 96-well plate and monitored for 12 h using a microscope. Images were taken from 6 separated wells and analyzed using Incucyte® Live-Cell Analysis Systems.

The next data set deals with A375 xenograft. As to the kind of experiment: A375 xenograft in mice. The conditions noted are these: for inhibition in tumor growth: 15 mg/kg and 30 mg/kg I.P. q.o.d. Type of data set: in vivo, Foxn1 nu mice. As to the method: (§1) Animal studies were approved by the Institutional Animal Care and Use Committee of the Faculty of Medicine of the Hebrew University and followed the guidelines for use of laboratory animals. 6-8-week-old male Foxn1 nu mice were S.C. injected with 5×10^6 A375 and MDA-MB-231 cells/mouse. Mice were I.P treated with 30 mg/kg and 15 mg/kg AD-3281 every other day and with 15 mg/kg, 7.5 mg/kg AD-3281 every other day in mice injected with A375 and MDA-MB-231 respectively. Tumor growth was measured with a digital caliper. At the end of the experiments after 18 or 15 days, mice were sacrificed, and tumors were surgically removed, weighed, volume was measured and histology stating was performed. AD-3281 was dissolved in 10:10:80 […]:ethanol:saline.
(§2) Animal studies were approved by the Institutional Animal Care and Use Committee of the Faculty of Medicine of the Hebrew University and followed the guidelines for use of laboratory animals. 6-8-week-old male Foxn1 nu mice were S.C. injected with 5×10^6 A375 or MDA-MB-231 cells/mouse. Mice were I.P treated with 30 mg/kg and 15 mg/kg AD-3281 q.o.d and with 15 mg/kg, 7.5 mg/kg AD-3281 (dissolved in 10:10:80 Cremophor EL: Ethanol: Saline) q.o.d in mice injected with A375 and MDA-MB-231 respectively. Tumor growth was measured with a digital caliper. At the end of the experiments after 18 or 15 days, mice were sacrificed, and tumors were surgically removed, weighed, volume was measured and histology stating was performed. Tumor tissues were resected at the end point and analyzed by immunohistology using standard protocol for paraffin fixed sections using anti-Ki-67 (Abcam, catalog number ab15580), anti-CD31 (Abcam, catalog number ab28364), anti-MetAp-2 (Ab134124, Abcam, Cambridge, UK) (Figure S.

Another data set relates to MDA-MB-231 xenograft. Put plainly: MDA-MB-231 xenograft in mice. The class given is in vivo, Foxn1 nu mice. As to the method: as §1, §2
Data set [1] concerns Choroidal Neovascularization (CNV). Put plainly: Laser-induced CNV in mice. The class given is in vivo, C57Bl/6J mice. To be noted: 12 μg per eye, intravitreal, 7 days. An excerpt:
Laser-induced CNV was generated by a previously described technique with some modifications. C57Bl/6J mice (6-8 weeks) were anesthetized by intraperitoneal injections of a mixture of 85% ketamine and 15% xylazine. A mixture of 0.5% tropicamide and 0.5% phenylephrine hydrochloride was applied to both eyes to dilate the pupils. Lesions were induced by a diode pumped solid state laser (0.1 s; spot size, 100 μm; power 120 mW) around the optic nerve through a slit lamp delivery system using a Nidek while a hand-held cover slide was used as a contact lens. Only lesions in which a subretinal bubble or focal serous detachment of the retina developed were used for the experiments. For this purpose, 4 burns were performed per eye while leaving a space around the optic disc. Intravitreal injections of the treatments were performed using a PLI-100 Pico-Injector following the laser procedure. After 7 days mice were euthanized and their eyes were removed and fixed in 4% paraformaldehyde for 60 min. The cornea and lens were removed, and the entire retina was carefully dissected from the eyecup Choroid.
Blood vessels were labeled using a 1:200 dilution of isolectin IB4 conjugated with Alexa Fluor 488 or lectin-FITC. The eyecup was flat-mounted in an aqua-mount with the sclera facing down and the choroid facing up. […] The CNV area (presented in μm2) in choroidal flat mount was evaluated using ImageJ software […]

On to `COC1C(OC(=O)CC23CC4CC(CC(C4)C2)C3)CCC2(CO2)C1C1(C)OC1CC=C(C)C` (stereo not shown) [AD-3281, Fumagillol-1-adamantylacetate], for which the HUVEC tube formation entry in the data set with HUVECs (50 μM) is on record as “narrower tubes compared with untreated control but without preventing network formation”; with HUVECs (100 μM), “impaired tubes; also recorded: prevent tube formation”. In addition, the “inhibition in tumor growth” value in the data set with A375 xenograft (after 8 days, vs control) is recorded as ~70%; in the data set with A375 xenograft (day 18) it was 99%. Further, in the data set with A375 xenograft (immunofluorescent staining of extracted tumors), the “cellular proliferation in tumors (Ki-67)” value was “less cellular proliferation than untreated tumors”. For the same compound, the “mean weight of extracted tumors” value is recorded as ~0.1 g in the data set with A375 xenograft (treated groups, day 18 (untreated 1 g)); 0.05 g in the data set on MDA-MB-231 xenograft (7.5 mg/kg q.o.d (untreated 1 g)); 0.001 g in the data set on MDA-MB-231 xenograft (15 mg/kg q.o.d (untreated 1 g)). Further, the tumor volume inhibition in the data set on MDA-MB-231 xenograft (7.5 mg/kg q.o.d, after 15 days) worked out at 97%. The “tumors that seemed completely eradicated” value with MDA-MB-231 xenograft (15 mg/kg q.o.d, after 15 days, n=4) turned out to be 3 tumors. The systemic adverse effects entry in the data set on MDA-MB-231 xenograft (all treated mice) is recorded as “no signs of systemic adverse effects”. In addition, in the data set with MDA-MB-231 xenograft (all treated mice), the “weight loss (>10%)” value is “not weight loss was detected”. Besides, in data set [1], the “effect on mouse laser induced CNV” value was found to be 46%.
